Results published in article PMC9603946, “On the Sensitivity of the Virion Envelope to Lipid Peroxidation” (Microbiology Spectrum, 2022).
Like-named read-outs stand apart in the source and are kept apart here.

Legend:
[1] = tested on: Vero cells; test: Viability of Vero cells infected with AMVN-pretreated virions
Protocol: (§1) The inocula were removed, the cells were washed, and the viability was immediately evaluated, mimicking the conditions used to test the direct exposure of the cells to the peroxidators.
(§2) After 1 h at 37°C, the cells were washed, and cell viability was evaluated as described.

[2] = tested on: HSV-1 virions; test: microbe, parasite or virus in culture; parameters: species or system HSV-1 KOS
Protocol: (§3) The effects of peroxidators have been commonly evaluated against purified lipids and liposomes as a proxy, but they have not been evaluated against virions ([50], [53][–][55]). We instead directly evaluated the extent of virion lipid peroxidation.
To evaluate virion peroxidation using liperfluo, 50 μL DMEM that contained 5 × 10^6 PFU of HSV-1 was added to 96-well plates. Virions were then preloaded with 10 μM liperfluo for 20 min at 37°C. […] Fluorescence was evaluated in a TECAN Infinite M200 Pro at 515 nm excitation and 545 nm emission. Medium containing no virus was used as blank.
(§4) To evaluate the effects of a lipid soluble antioxidant, cells or virions were preloaded with vitamin E-BSA for 3 h at 37°C. Vitamin E-BSA containing medium was removed, and the cells were washed twice with DMEM. Liperfluo (20 or 10 μM for cells or virions, respectively) or C11-Bodipy (1 μM for cells or 0.1 mol% for virions) were preloaded into the cells or virions for 30 min at 37°C.
(§5) To evaluate the effects of water soluble antioxidants, liperfluo (20 μM for cells or 10 μM for virions) or C11-Bodipy (1 μM for cells or 0.1 mol% for virions) were preloaded into the cells or virions for 30 min at 37°C. […] Fluorescence was evaluated in a TECAN Infinite M200 Pro at 515 nm excitation and 545 nm emission for liperfluo or at 550 nm excitation and 580 to 630 nm emission for C11-Bodipy.

[3] = tested on: HSV-1; test: HSV-1 virion infectivity (plaquing efficiency) on HFF cells after virion pretreatment; details: for EC50: Human alphaherpesvirus 1, HFF
Protocol: (§6) The inocula were removed, and the cells were washed and then incubated at 37°C in 5% CO2 until plaques were visible and well-resolved (about 2 days), at which time they were fixed and stained with crystal violet.
(§7) HSV-1 suspensions of 20,000 plaque PFU in 250 μL DMEM were mixed 1:1 with 2-fold serial dilutions of the general peroxidators and were incubated in a water bath for 2 h at 37°C. Next, treated virions were diluted 1:100 before being adsorbed onto cells for 1 h at 37°C. The inocula were removed, and the cells were washed twice with cold DMEM. Infected cells were overlaid with DMEM supplemented with 2% (Vero) or 1% (HFF) methylcellulose and 5% FBS and were incubated at 37°C until plaques were visible and well-resolved, typically in about 2 days. Cell monolayers were fixed and stained with 1% crystal violet in 17% methanol for 18 h at RT. The cells were washed, and the plaques were counted and normalized to those produced by the vehicle treated virions.
(§8) To test the effects of lipid soluble antioxidants on virions, 10 μM vitamin E loaded onto 1% carrier BSA in the dark for 4.5 h at RT was incubated with 10^6 HSV-1 virions for 3 h at 37°C. […] The treated virions were diluted 1:100 before infecting cells. […] The mix was incubated for 2 h at 37°C, diluted 1:100, and used to infect cells. The infectivity of an aliquot of treated virions was tested via a plaque assay.

[4] = tested on: Vero cells; test: Vero cell lipid peroxidation probed with C11-Bodipy; type: cell-based, African green monkey; details: for EC50: Chlorocebus sabaeus, Bodipy probe
Protocol: as §3
To evaluate Vero cell lipoperoxidation with C11-Bodipy, 7.5 × 10^3 cells were seeded into each well of 96-well plates and incubated for 18 h at 37°C in 5% CO2 before preloading them with 1 μM C11-Bodipy for 30 min at 37°C. […] Two hours later, the cells were washed twice and lysed with DMSO:isopropanol. Fluorescence was evaluated in a TECAN Infinite M200 Pro at 550 nm excitation and 580 to 630 nm emission with the reading peak at 600 nm.
as §4, §5

[5] = tested on: HSV-1; test: HSV-1 virion infectivity (plaquing efficiency) on Vero cells after virion pretreatment; details: Vero; for EC50: Human alphaherpesvirus 1, Vero
Protocol: as §6, §7, §8

[6] = tested on: HSV-1 virions; test: HSV-1 virion lipid peroxidation probed with C11-Bodipy; parameters: species or system HSV-1 KOS; details: Human alphaherpesvirus 1, Bodipy probe
Protocol: as §3
To evaluate virion lipoperoxidation with C11-Bodipy, 50 μL DMEM containing 5 × 10^6 PFU of HSV-1 was added into each well of 96-well plates. Virions were then preloaded with 0.1 mol % of C11-Bodipy for 30 min at 37°C. […] Fluorescence was evaluated in a TECAN Infinite M200 Pro at 550 nm excitation and 580 to 630 nm emission with the reading peak at 600 nm.
as §4, §5

[7] = tested on: HFF cells; test: Viability of HFF cells infected with AMVN-pretreated virions
Protocol: as §1, §2

[8] = pretreated virions diluted 1:100
[9] = 2 h, no antioxidant, virions treated 2 h at 37°C
[10] = virions preloaded with vitamin E (10 μM, BSA carrier)

CC(C)CC(C)(C#N)N=NC(C)(C#N)CC(C)C (stereo not drawn) [AMVN, 2,2′-azobis(2,4-dimethylvaleronitrile)]
decrease of infected cell viability at the highest AMVN concentration ([1]; AMVN carried by virions): 20 to 30% | concentration from which AMVN carried by virions had minor effects on infected cell viability [1, 8]: 2000 µM | EC50 ([2]; Human alphaherpesvirus 1, read-out: VP50, Liperfluo probe, no antioxidant): 1200 µM | EC50 ([2]; Human alphaherpesvirus 1, read-out: VP50, Liperfluo probe, vitamin C): 1200 µM | EC50 ([2]; Human alphaherpesvirus 1, read-out: VP50, Liperfluo probe, vitamin E): 900 µM | concentration from which virion infectivity was affected [3]: 0.7 mM | concentration giving a loss of infectivity of about 30% ([3]; 2 h at 37°C): 0.7 mM | EC50 [3, 9]: 1100 µM | EC50 [3, 10]: 2700 µM | EC50 ([3]; with vitamin C (10 μM)): 1400 µM | SI, CC50/EC50 ([3]; vitamin C): 3.1 | SI, CC50/EC50 ([3]; vitamin E): 1.8 | lowest concentration affecting cell lipid peroxidation ([4]; C11-Bodipy (Fig. 8)): 2.5 mM | EC50 ([4]; no antioxidant, read-out: CP50 (concentration of peroxidant that results in 50% peroxidation in cell lipids)): 2100 µM | EC50 ([4]; vitamin C, read-out: CP50 (the source's name)): 1700 µM | EC50 ([4]; vitamin E, read-out: CP50 (the source's name)): 3500 µM | EC50 [5, 9]: 800 µM | EC50 [5, 10]: 3800 µM | EC50 ([5]; with vitamin C (10 μM)): 2600 µM | concentration of maximal inhibition of virion infectivity [5]: 5 mM | concentration giving a loss of infectivity of about 30% ([5]; 2 h at 37°C): 0.3 mM | SI, CC50/EC50 ([5]; vitamin C): 1.3 | SI, CC50/EC50 ([5]; vitamin E): 1.2 | lowest concentration that decreased virion infectivity in the presence of BSA ([5]; with BSA): 2.5 mM | lowest effective concentration on infectivity in the presence of the antioxidants ([5]; with antioxidants): 1.5 mM | EC50 ([6]; no antioxidant, read-out: VP50 (concentration of peroxidant that results in 50% peroxidation in virion lipids)): 2700 µM | EC50 ([6]; vitamin C, read-out: VP50 (the source's name)): 2000 µM | EC50 ([6]; vitamin E, read-out: VP50 (the source's name)): 2400 µM | decrease of infected cell viability at the highest AMVN concentration ([7]; AMVN carried by virions): 20 to 30% | concentration from which AMVN carried by virions had minor effects on infected cell viability [7, 8]: 3000 µM
